The subject of assay [1] is PAF induced respiratory tract constriction. Kind of assay: PAF induced respiratory tract constriction inhibitory activity. Type of assay: in vivo, guinea pig (Hartley). The note with it: intravenously. An excerpt: PAF Induced Respiratory Tract Constriction Inhibitory Activity Male and female Hartley guinea pigs, weighing about 100 g, were used. The guinea pigs were fixed at a dorsal position under urethane anethesia (1.5 g/kg, i.p.). One leg of a cannula (having four legs) was inserted in the trachea and two of the other three legs were bound to the respirator (Harvard apparatus rodent respirator). The remaining one leg (side branch) was bound to the bronchospasm transducer 7.020 (Ugobasile). Under the conditions of 5 to 7 ml of air supply/time, 70 times/min. of supply time and 10 cm H2 O of pulmonary pressure load, the amount of over flow air was recorded on a Rectigraph (Rectigraph-8S, Saneissoki) via the transducer. After Gallamine […] treatment (1 mg/kg, i.v.), PAF was administered intravenously (1.0 μg/kg) and the maximum respiratory tract constriction response was observed after 30 seconds. Under these conditions, the inhibitory activity of the test compounds were examined.

Assay [2] deals with Rat reversed passive Arthus reaction (skin). Kind of assay: Rat reversed passive Arthus reaction (skin) inhibitory activity. Type of assay: in vivo, rat (Jcl: SD). The note with it: po, orally, read-out: Inhibitory percentage (reversed passive Arthus reaction). As for the experimental part:
Rat Reversed Passive Arthus Reaction (skin) Inhibitory Activity This reaction was-induced by using domestic rabbit anti-egg albumin (EA) antiserum according to the method of Chang and Otterness [Chang, Y. -H. and Otterness, I. G.: Eur. J. Pharmacol. 69, 155 (1981)]. Using six Jcl: SD male rats (7 weeks old, weight about 250 g) per one group, the hair was removed from the back under ether anesthesia, 1 ml of 0.5% EA physiological saline was injected […] into the tail vein, and further each 0.1 ml of diluted antiserum (6 mg protein antibody/ml) was injected in the back on both dexter and sinister sides. […] Acceleration of permeability through the vessel by the reaction was measured by injecting 1 ml of 1% Evans blue physiological saline intravenously at three hours after the induction of the reaction. Then, after 30 minutes, the rat was sacrificed by exsanguination. The skin was peeled off and the area of pigment spot (length×breadth, mm^2) was measured.

Assay [3] has as its target T1, cyclooxygenase (Rattus norvegicus, UniProt Q63921).
T1 construct: from tissue; host or cells: platelets in platelet-rich plasma from rat abdominal aorta blood (Jcl:wistar, male)
T1 sequence (Q63921 27-602): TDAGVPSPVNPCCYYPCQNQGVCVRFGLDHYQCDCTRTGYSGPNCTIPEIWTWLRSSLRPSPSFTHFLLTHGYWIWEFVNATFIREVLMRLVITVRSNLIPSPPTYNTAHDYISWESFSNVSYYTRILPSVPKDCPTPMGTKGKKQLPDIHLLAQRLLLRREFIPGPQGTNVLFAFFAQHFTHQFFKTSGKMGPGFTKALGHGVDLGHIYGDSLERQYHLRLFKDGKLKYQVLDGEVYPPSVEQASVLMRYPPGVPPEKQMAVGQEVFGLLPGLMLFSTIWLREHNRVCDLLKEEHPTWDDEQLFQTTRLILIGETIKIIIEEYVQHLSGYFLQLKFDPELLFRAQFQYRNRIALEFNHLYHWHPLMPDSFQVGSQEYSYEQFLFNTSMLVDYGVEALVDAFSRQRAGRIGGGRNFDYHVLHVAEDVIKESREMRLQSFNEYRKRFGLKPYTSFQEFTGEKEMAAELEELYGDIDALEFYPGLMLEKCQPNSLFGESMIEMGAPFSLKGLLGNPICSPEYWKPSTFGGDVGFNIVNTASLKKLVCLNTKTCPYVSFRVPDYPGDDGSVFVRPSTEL
Kind of assay: Cyclooxygenase inhibitory activity (HHT formation from arachidonic acid in rat platelet-rich plasma). Type of assay: cell-based, rat (Jcl:wistar).

Assay [4] relates to ART (antigen-responding T-cell). Kind of assay: In vitro ART (antigen-responding T-cell) proliferation test. Type of assay: cell-based, Lewis rat. The following applies: Rattus norvegicus, T-cell, read-out: % Inhibition of ART growth.
In assay [5] the test system is Mouse phenylquinone writhing. Kind of assay: Mouse phenylquinone writhing inhibitory activity. Type of assay: in vivo, mouse (Slc: ICR). The note with it: Mus musculus, po, 20 min, 50 mg/kg, orally; read-out: Inhibitory percentage (phenylquinone writhing). In short, it runs like this: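 Male ICR mice (4 weeks, 17–24 g) dosed orally with compound suspended in 5% gum arabic. After 30 min, 0.02% phenylquinone (0.1 ml/10 g) given i.p.; writhing and stretching responses counted over 20 min.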

Assay [6] relates to Rat carrageenin pedal edema. Kind of assay: Rat carrageenin pedal edema inhibitory activity. In kind it is in vivo, rat (Jcl: SD). The following applies: Rattus norvegicus, po, 3 h, orally, 3 hours after carrageenin, read-out: Inhibitory percentage (carrageenin pedal edema). The method, boiled down: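 Male Jcl:SD rats (6 weeks, 160-220 g) received test compound orally as a 5% gum arabic suspension, topped up with water to 5 ml/rat. One hour later 0.05 ml of 1% carrageenin was injected subcutaneously into the right hind foot pad. Edema volume was the foot volume increase 3 hours post-injection.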
In general terms: Carrageenan injected into the paw causes an acute inflammation.

The subject of assay [7] is Mouse acetic acid writhing. Briefly: Mouse acetic acid writhing inhibitory activity. Type of assay: in vivo, mouse (Slc: ICR). The note with it: Mus musculus, po, 20 min, orally, read-out: Inhibitory percentage (acetic acid writhing). As for the experimental part:
Mouse Acetic Acid Writhing Inhibitory Activity
Ten male Slc: ICR mice, 4 weeks old, per 1 group were used. A test compound was administered orally, and after 30 minutes, 0.1 ml/10 g body weight of physiological saline containing 0.6% acetic acid was injected intraperitoneally. For 20 minutes, writhing (in agony condition) response by administration of acetic acid was counted regarding individual animals. The inhibitory percentage relative to the mean response counts of a control group was calculated regarding respective animals in a test compound administration group. The test compound was suspended in 5% gum arabic solution, and the administration volume was 0.2 ml/10 g.
(In general: In writhing tests, fewer writhes than in controls are read as antinociception.)

In assay [8] the test system is brewer's yeast inflamed rat hind limb foot pad pain threshold. Briefly: Pain relief test by Randall Celit method. In kind it is in vivo. The note with it: orally. Here is the method: Pain Relief Test By Randall Celit Method
Seven to eight male Jcl: […] rats, 5 weeks old, per one group were used. 0.1 ml of 10% brewer's yeast physiological saline suspension was injected subcutaneously in the rat dexter hind limb foot pad to induce inflammation. After three hours, the pain threshold was measured by pressure stimulating pain relief measuring apparatus manufactured by Ugo Basile Company (Cat. No. 7200) using an index of […] pain reflex in the inflammatory limb (dexter hind limb), and this was taken as response threshold value in the inflammatory limb. A test compound was administered after additional 45 minutes orally, and the threshold was measured after one and two hours. The efficacy was determined by comparing threshold of a control group and that of the test compound group. The test compound was suspended in 5% gum arabic solution and the administration volume was 0.5 ml/100 g.

Assay [9] deals with brewer's yeast induced pyrexia. Kind of assay: Antipyretic activity (brewer's yeast induced pyrexia). In kind it is in vivo, rat (DS line). The note with it: orally; for Antipyretic activity, .increment. °C.: at peak time. In short, it runs like this: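 Male DS rats (7 weeks, 200-240 g) made febrile by s.c. 15% brewer's yeast 18 h before dosing; only animals at ≥38.5° C used. Compound given orally versus solvent control, with rectal temperature taken by thermistor hourly for 5 h post-dose.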

The test system of assay [10] is ICAM-1. Kind of assay: Adhesion protein expression inhibitory activity, ICAM-1. In kind it is cell-based. The note with it: 30 μM, human umbilical vascular endothelial cells, TNF-α; 360 min. As for the experimental part: Adhesion Protein Expression Inhibitory Activity The various concentrations of test compounds were added to the human umbilical cord-derived vascular endothelial cells [sold by Klabo] which were seeded in the gelatin coat plate and the mixture was incubated at 37° C. for 15 minutes. Then, the human tumor necrosis factor-α[TNF-α; sold by Genzyme] was added therein to the final concentration of 1 ng/ml and incubation was carried out at 37° C. for 3 hours for expression of ELAM-1 and for 6 hours for that of ICAM-I. After the reaction, the cells were fixed using glutaraldhyde and the expression amount of ELAM-1 and ICAM-1 was measured by the cell-ELISA method. That is, the expression was determined by […] the adhesion proteins on the cells in the system using anti-ELAM-1 antibody BBA-2 and anti-ICAM-1 antibody BBA4 as the first antibody as well as horseradish peroxidase-labeled rabbit anti-mouse IgG antibody as the second antibody.

Counter-ions that a name gives are not always drawn.

Usually IC50 stands for the concentration at which inhibition is half-maximal. Read a high IC50 as a need for much substance. A word on the inhibition: it is the change of the read-out against control, counted positive when it falls.

Regarding `Cl.Cl.O=c1c2ccccc2n(CSc2ccncc2)c(=O)n1CCCCSc1ccncc1` [Example 199, 1-(4-pyridylthio)methyl-3-[4-(4-pyridylthio)butyl]quinazoline-2,4(1H,3H)-dione dihydrochloride], the “Inhibitory activity (PAF induced respiratory tract constriction)” value in [1] (3 mg/kg) is reported as 53.5%.
On to `O=C(C=Cc1cccs1)NCCCSc1ccncc1` [Example 56, 4-[3-(2-thiopheneacrylamino)propylthio]pyridine], for which the inhibition in vivo at 50 mg/kg in [2] was 32%.
Turning to `O=C(NCCCSc1ccncc1)c1ccco1` [Example 53, 4-[3-(2-furoylamino)propylthio]pyridine], 8.6 µM corresponded to half-maximal inhibition in [3] (IC50). Further, in assay [2], the inhibition in vivo at 50 mg/kg is 21%.
In the case of `CCC(=O)N(CCCCSc1ccncc1)c1ccccc1N(CCCCSc1ccncc1)C(=O)CC.Cl.Cl` [Example 203, 1,2-bis[N-[4-(4-pyridylthio)butyl]-N-propionylamino]benzene dihydrochloride], the “Inhibitory activity (PAF induced respiratory tract constriction)” value in assay [1] (0.3 mg/kg) turned out to be 90.4%.
Take `CCCCOc1ccc(C(=O)NCCCSc2ccncc2)cc1` [Example 35, 4-[3-(4-n-butoxybenzoylamino)propylthio]pyridine hydrochloride]: the IC50 in assay [3] is 2.3 µM. Moreover, in [4], the inhibition at 1 µM was determined as 18% and the inhibition at 10 µM is 33%. In addition, in [5], the inhibition in vivo at 50 mg/kg came out at 60%. Moreover, the inhibition in vivo at 50 mg/kg in assay [2] was 30%.
`CC1(C)OC(=O)N(CSc2ccncc2)C1=O` [Example 173, 4-(5,5-dimethyloxazolidine-2,4-dione)methylthiopyridine]: the inhibition in vivo at 50 mg/kg in assay [6] amounted to 23%; in assay [7], 75%. In addition, the “% Of Control (pain threshold)” value in assay [8] (200 mg/kg, 1 hour) stood at 222.7 ± 26.4 % Of Control; in [8] (200 mg/kg, 2 hours), 165.8 ± 24.9 % Of Control. In addition, in assay [9] (50 mg/kg), the “Antipyretic activity, peak time” value worked out at 2 h. In assay [9] (50 mg/kg), the “Antipyretic activity, .increment. °C.” value is -2.02 °C. Also, in [10], the “Expression Inhibitory Potency, ICAM-1” value was found to be 35%.
As to `O=C1CSC(=O)N1CSc1ccncc1` [Example 169, 4-(2,4-thiazolidinedionemethylthio)pyridine], the results for the inhibition in vivo at 50 mg/kg in [6] and in [7] were 44% and 96%, respectively. The “% Of Control (pain threshold)” value in [8] (50 mg/kg, 1 hour) is reported as 215.2 ± 16.1 % Of Control; in [8] (50 mg/kg, 2 hours), 158.4 ± 26.2 % Of Control; in assay [8] (200 mg/kg, 1 hour) it was 242 ± 21.9 % Of Control; in assay [8] (200 mg/kg, 2 hours), 326.1 ± 80.1 % Of Control. The “Antipyretic activity, peak time” value in assay [9] (12.5 mg/kg) and in [9] (50 mg/kg) was 2 h throughout. In addition, the “Antipyretic activity, .increment. °C.” value in [9] (12.5 mg/kg) is -2.13 °C; in assay [9] (50 mg/kg), -2.43 °C.
On to `O=C(NCCCSc1ccncc1)c1cccnc1` [Example 41, 4-[3-(nicotinoylamino)propylthio]pyridine], for which, in assay [3], the IC50 was 11.3 µM. The inhibition in vivo at 50 mg/kg in assay [5] was found to be 73%; in assay [2], 35%.
`CC(C)(C)C(=O)NCCCSc1ccncc1.Cl` [Example 24, 4-[3-(pivaloylamino)propylthio]pyridine hydrochloride]: in assay [4], the inhibition at 1 µM was determined as 29% and the inhibition at 10 µM amounted to 35%. Besides, the inhibition in vivo at 50 mg/kg in [5] was determined as 56%. In assay [9] (50 mg/kg), the “Antipyretic activity, peak time” value amounted to 2 h and the “Antipyretic activity, .increment. °C.” value is -1.33 °C. Further, in [2], the inhibition in vivo at 50 mg/kg stood at 46%.
In the case of `O=C1c2ccccc2C(=O)N1CSc1ccncc1` [Example 62, 4-(phthalimidomethylthio)pyridine], in assay [6] (12.5 mg/kg), the inhibition in vivo at 12.5 mg/kg worked out at 20%. Further, the inhibition in vivo at 50 mg/kg in assay [6] was 36%; in assay [5], 55%; in [2], 27%. Also, the “Antipyretic activity, peak time” value in assay [9] (50 mg/kg) is listed as 4 h. Also, the “Antipyretic activity, .increment. °C.” value in assay [9] (50 mg/kg) is -1.40 °C.
With `CC(C)(C)c1ccc(C(=O)NCCCSc2ccncc2)cc1` [Example 32, 4-[3-(4-t-butylbenzoylamino)propylthio]pyridine hydrochloride], the IC50 in [3] was determined as 6.5 µM. In assay [4], the inhibition at 1 µM was found to be 43% and the inhibition at 10 µM came to 37%. Also, the inhibition in vivo at 50 mg/kg in assay [5] amounted to 63%. Further, in assay [9] (50 mg/kg), the “Antipyretic activity, peak time” value was determined as 1 h and the “Antipyretic activity, .increment. °C.” value is -1.39 °C. Also, in [2], the inhibition in vivo at 50 mg/kg was 41%.
In [3], `O=C(NCCCSc1ccncc1)C(F)(F)F` [Example 25, 4-[3-(trifluoroacetylamino)propylthio]pyridine hydrochloride] registered an IC50 of 3.4 µM. Besides, in [4], the inhibition at 1 µM was determined as 44% and the inhibition at 10 µM is -7%. The inhibition in vivo at 50 mg/kg in assay [5] was 60%. In assay [2], the inhibition in vivo at 50 mg/kg amounted to 24%.

The values are drawn from patent US5457106A, “Pyridine derivatives, their production and use” (Takeda Chemical Industries, Ltd., priority 1991, dated 1995).
